Where two headings read alike, the source gives them in different places.
What was measured:
Assay type in all cases: biochemical
Human Tyk2 kinase domain = Human Tyk2 kinase domain (Homo sapiens (Human), UniProt P29597); experiment: Tyk2 Inhibition Assay (Example A, Omnia kinase fluorescence peptide substrate assay); details: TYK2 Enzyme IC50 1 mM ATP, averaged IC50 ranges
Procedure, shortened: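 IC50 values come from a 4-parameter logistic fit of percent-of-control data, with compounds at 2% final DMSO. Reactions held 1 nM His-tag-cleaved Tyk2 (aa 886–1187), 8 μM Omnia Y12 peptide and 1 mM ATP in pH 7.4 HEPES buffer with 10 mM MgCl2, Triton X-100 and DTT. Sox fluorescence (360/485 nm) was monitored kinetically over 45 min.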

JAK1 = JAK1 (Homo sapiens (Human), UniProt P23458); experiment: JAK1 Inhibition Assay (Example B, Omnia kinase fluorescence peptide substrate assay)
JAK1, sequence (P23458 whole entry): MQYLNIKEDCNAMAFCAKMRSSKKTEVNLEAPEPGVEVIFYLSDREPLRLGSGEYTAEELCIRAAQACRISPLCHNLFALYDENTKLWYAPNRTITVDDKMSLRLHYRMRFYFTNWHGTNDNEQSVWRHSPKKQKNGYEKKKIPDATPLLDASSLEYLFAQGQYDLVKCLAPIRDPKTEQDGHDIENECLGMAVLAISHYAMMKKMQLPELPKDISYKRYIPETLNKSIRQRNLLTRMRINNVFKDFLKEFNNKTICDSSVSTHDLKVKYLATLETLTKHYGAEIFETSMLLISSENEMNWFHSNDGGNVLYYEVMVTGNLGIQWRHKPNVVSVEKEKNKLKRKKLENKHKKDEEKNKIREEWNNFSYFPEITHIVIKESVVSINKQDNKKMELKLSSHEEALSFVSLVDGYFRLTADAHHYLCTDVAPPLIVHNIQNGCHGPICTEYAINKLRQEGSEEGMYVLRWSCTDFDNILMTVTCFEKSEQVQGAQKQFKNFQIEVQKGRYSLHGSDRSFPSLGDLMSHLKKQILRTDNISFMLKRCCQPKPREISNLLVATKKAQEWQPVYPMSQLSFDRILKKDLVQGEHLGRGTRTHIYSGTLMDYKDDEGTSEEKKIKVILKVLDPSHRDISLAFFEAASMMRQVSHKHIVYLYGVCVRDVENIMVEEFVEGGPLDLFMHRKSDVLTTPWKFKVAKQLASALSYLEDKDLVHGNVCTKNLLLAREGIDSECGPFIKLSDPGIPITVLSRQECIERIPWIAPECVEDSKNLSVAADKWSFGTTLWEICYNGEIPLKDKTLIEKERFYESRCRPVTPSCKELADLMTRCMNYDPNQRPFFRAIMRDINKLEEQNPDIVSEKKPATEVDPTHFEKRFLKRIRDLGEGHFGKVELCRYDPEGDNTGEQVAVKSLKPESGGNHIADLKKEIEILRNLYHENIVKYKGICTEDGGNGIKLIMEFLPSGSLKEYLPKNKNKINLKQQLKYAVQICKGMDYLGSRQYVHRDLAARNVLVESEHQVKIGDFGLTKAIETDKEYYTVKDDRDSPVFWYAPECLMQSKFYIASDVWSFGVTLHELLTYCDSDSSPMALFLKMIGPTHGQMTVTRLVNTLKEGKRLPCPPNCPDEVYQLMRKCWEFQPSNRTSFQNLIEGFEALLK
Procedure, shortened: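 Kinetic fluorescence read (360 nm excitation, 485 nm emission, every 50 s over 45 min) of Omnia Y12 peptide (8 μM) phosphorylation by 12.5 nM human JAK1 at 1 mM ATP. Buffer: HEPES pH 7.4, MgCl2, Triton X-100, DTT; 2% DMSO. IC50 = concentration giving 50 POC on logistic curve.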

JAK2 = JAK2 (Homo sapiens (Human), UniProt O60674); experiment: JAK2 Inhibition Assay (Example C, Omnia kinase fluorescence peptide substrate assay); details: JAK2 Enzyme IC50 1 mM ATP, averaged IC50 ranges
JAK2, sequence (O60674 whole entry): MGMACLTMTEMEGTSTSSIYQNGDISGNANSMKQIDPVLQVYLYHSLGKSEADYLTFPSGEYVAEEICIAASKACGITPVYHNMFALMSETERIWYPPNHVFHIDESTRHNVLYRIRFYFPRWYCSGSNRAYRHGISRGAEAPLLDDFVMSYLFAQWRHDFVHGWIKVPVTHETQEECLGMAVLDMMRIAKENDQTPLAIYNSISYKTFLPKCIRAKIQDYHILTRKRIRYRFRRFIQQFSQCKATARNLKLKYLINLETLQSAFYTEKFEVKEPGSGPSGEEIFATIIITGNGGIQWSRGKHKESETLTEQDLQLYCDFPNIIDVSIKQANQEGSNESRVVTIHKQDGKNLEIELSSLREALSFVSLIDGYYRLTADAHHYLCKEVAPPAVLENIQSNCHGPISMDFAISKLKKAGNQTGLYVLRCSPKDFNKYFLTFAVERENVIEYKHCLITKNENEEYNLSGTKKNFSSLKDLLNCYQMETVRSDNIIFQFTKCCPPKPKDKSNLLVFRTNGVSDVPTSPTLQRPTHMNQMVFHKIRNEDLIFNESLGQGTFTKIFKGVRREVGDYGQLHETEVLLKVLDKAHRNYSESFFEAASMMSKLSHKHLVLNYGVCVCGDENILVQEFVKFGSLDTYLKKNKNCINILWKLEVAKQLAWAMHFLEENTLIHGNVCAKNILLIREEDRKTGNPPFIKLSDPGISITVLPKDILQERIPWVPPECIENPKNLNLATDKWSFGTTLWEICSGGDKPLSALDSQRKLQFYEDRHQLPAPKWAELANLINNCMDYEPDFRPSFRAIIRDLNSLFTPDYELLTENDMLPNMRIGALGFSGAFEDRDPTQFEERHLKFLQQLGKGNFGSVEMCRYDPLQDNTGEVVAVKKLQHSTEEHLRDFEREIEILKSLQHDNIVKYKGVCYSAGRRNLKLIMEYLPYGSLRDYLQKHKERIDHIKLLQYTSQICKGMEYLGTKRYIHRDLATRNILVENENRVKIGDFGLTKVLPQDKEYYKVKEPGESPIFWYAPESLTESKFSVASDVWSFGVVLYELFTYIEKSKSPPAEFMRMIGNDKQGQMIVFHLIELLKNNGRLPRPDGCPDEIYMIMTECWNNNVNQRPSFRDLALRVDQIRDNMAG
Procedure, shortened: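 Kinetic fluorescence read of Omnia Y7 peptide (10 μM) phosphorylation, ex 360/em 485 nm every 50 s over 45 min, by 4 nM JAK2 at 1 mM ATP. Buffer 25 mM HEPES pH 7.4, 10 mM MgCl2, 0.01% Triton X-100, 1 mM DTT; final DMSO 2%. Percent-of-control values fitted by 4-parameter logistic for IC50.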

JAK3 = JAK3 (Homo sapiens (Human), UniProt P52333); experiment: JAK3 Inhibition Assay (Example D, Omnia kinase fluorescence peptide substrate assay)
JAK3, sequence (P52333 whole entry): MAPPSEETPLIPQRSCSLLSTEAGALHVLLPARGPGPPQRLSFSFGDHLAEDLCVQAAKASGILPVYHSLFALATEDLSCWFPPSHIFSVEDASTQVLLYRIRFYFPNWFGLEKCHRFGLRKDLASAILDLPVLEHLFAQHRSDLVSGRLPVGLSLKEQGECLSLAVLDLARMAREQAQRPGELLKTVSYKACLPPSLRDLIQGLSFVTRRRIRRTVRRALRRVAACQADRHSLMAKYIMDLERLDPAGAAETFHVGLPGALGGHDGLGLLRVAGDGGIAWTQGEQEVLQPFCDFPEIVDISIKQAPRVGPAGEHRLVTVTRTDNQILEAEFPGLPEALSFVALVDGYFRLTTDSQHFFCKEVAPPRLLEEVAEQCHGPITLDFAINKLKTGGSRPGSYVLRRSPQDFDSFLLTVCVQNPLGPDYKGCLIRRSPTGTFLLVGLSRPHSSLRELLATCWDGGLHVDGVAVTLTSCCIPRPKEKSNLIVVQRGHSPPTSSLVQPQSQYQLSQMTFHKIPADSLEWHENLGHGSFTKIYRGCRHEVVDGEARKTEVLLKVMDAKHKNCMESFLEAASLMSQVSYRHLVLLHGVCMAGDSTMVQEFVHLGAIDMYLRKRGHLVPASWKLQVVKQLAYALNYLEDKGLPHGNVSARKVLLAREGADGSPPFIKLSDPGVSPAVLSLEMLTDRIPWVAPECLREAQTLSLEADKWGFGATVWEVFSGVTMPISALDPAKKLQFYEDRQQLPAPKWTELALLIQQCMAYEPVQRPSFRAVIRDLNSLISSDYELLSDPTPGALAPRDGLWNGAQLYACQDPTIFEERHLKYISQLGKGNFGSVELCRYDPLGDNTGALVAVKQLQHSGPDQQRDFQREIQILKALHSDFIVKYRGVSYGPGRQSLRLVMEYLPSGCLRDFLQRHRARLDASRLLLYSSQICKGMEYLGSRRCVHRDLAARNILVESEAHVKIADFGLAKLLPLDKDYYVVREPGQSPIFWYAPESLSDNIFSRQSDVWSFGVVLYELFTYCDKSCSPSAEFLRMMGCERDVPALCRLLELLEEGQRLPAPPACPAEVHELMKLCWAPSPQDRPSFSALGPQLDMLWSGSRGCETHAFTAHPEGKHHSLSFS
Procedure, shortened: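 Omnia Sox-peptide kinetic read (ex 360 nm, em 485 nm, every 50 s over 45 min) tracked phosphorylation of 10 μM Y7 peptide by 2 nM recombinant JAK3 at 1 mM ATP. Buffer: 25 mM HEPES pH 7.4, 10 mM MgCl2, 0.01% Triton X-100, 1 mM DTT, with 2% DMSO final.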

[1] = JAK1 Enzyme IC50 1 mM ATP, 1 mM ATP, averaged IC50 ranges

Human Tyk2 kinase domain, sequence (P29597 886-1187): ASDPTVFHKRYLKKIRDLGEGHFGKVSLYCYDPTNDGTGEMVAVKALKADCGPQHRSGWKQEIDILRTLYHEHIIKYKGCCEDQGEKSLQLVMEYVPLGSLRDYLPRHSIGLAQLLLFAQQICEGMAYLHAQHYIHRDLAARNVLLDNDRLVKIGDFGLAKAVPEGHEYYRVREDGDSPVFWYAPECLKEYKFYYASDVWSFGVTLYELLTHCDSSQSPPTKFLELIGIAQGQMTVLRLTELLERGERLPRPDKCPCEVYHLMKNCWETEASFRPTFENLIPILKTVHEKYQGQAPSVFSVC

Compound | IC50 (Human Tyk2 kinase domain) [nM] | IC50 (JAK1) [nM] | IC50 (JAK2) [nM] | IC50 (JAK3) [nM] | IC50 (JAK1; [1]) [nM]
CCC(CC(F)(F)F)n1cc(-c2nc(-c3cnn(C(CO)CO)c3)cn3nccc23)cn1 (single isomer, unassigned) [Example 212] | 100 to 1000 | 1000 to 10000 | 100 to 1000 | 1000 to 10000 | –
CCC(CC)n1cc(-c2nc(-c3cnn(C[C@H]4CNCCO4)c3)cn3nccc23)cn1 [compound 128, (R)-2-((4-(4-(1-(pentan-3-yl)-1H-pyrazol-4-yl)pyrazolo[1,5-a]pyrazin-6-yl)-1H-pyrazol-1-yl)methyl)morpholine] | 100 to 1000 | 1000 to 10000 | 100 to 1000 | 1000 to 10000 | –
CC(C)C[C@H](C)n1cc(-c2nc(-c3cnn(C[C@H](O)CO)c3)cn3nccc23)cn1 [Example 76, (S)-3-(4-(4-(1-((S)-4-methylpentan-2-yl)-1H-pyrazol-4-yl)pyrazolo[1,5-a]pyrazin-6-yl)-1H-pyrazol-1-yl)propane-1,2-diol] | 100 to 1000 | – | 100 to 1000 | 1000 to 10000 | 1000 to 10000
CCC(CC)n1cc(-c2nc(-c3cnn([C@@H](C)[C@H](C)O)c3)cn3nccc23)cn1 (single isomer, unassigned) [Example 155] | 10 to 100 | – | 10 to 100 | 1000 to 10000 | 100 to 1000
CCC(CC)n1cc(-c2nc(-c3cnn(C[C@@H](O)CCO)c3)cn3nccc23)cn1 (single isomer, unassigned) [Example 200] | 10 to 100 | 100 to 1000 | 10 to 100 | 1000 to 10000 | –
CCC(n1cc(-c2nc(-c3cnn(C[C@@H](O)CO)c3)cn3nccc23)cn1)C(F)(F)F (stereo partly drawn) [Example 193, (2R)-3-(4-(4-(1-(1,1,1-trifluorobutan-2-yl)-1H-pyrazol-4-yl)pyrazol[1,5-a]pyrazin-6-yl)-1H-pyrazol-1-yl)propane-1,2-diol] | 100 to 1000 | – | 100 to 1000 | 1000 to 10000 | 1000 to 10000
C[C@@H]1CCCC[C@H]1n1cc(-c2nc(-c3cnn(C[C@H](O)CO)c3)cn3nccc23)cn1 (single isomer, unassigned) [Example 152] | 10 to 100 | – | 10 to 100 | 1000 to 10000 | 1000 to 10000
CCC(CC)n1cc(-c2nc(-c3cnn(CC(O)CN)c3)cn3nccc23)cn1 (stereo not drawn) [Example 98, 1-amino-3-(4-(4-(1-(pentan-3-yl)-1H-pyrazol-4-yl)pyrazolo[1,5-a]pyrazin-6-yl)-1H-pyrazol-1-yl)propan-2-ol] | 10 to 100 | – | 10 to 100 | 1000 to 10000 | 1000 to 10000
CC[C@H](C1CCC1)n1cc(-c2nc(-c3cnn(C[C@@H](O)CO)c3)cn3nccc23)cn1 (single isomer, unassigned) [Example 196] | 100 to 1000 | – | 100 to 1000 | 1000 to 10000 | 1000 to 10000
CCC(CC)n1cc(-c2nc(-c3cnn(C[C@H](O)CN4CC(OC)C4)c3)cn3nccc23)cn1 [Example 103, (R)-1-(3-methoxyazetidin-1-yl)-3-(4-(4-(1-(pentan-3-yl)-1H-pyrazol-4-yl)pyrazolo[1,5-a]pyrazin-6-yl)-1H-pyrazol-1-yl)propan-2-ol] | 10 to 100 | – | 10 to 100 | 1000 to 10000 | 1000 to 10000
CCC(CC)n1cc(-c2nc(-c3cnn([C@@H]4CCCNC4)c3)cn3nccc23)cn1 [Example 29, (R)-4-(1-(pentan-3-yl)-1H-pyrazol-4-yl)-6-(1-(piperidin-3-yl)-1H-pyrazol-4-yl)pyrazolo[1,5-a]pyrazine] | 10 to 100 | 100 to 1000 | 10 to 100 | 1000 to 10000 | –

The remaining lines, values ahead:

IC50 (Human Tyk2 kinase domain) [nM] | IC50 (JAK1) [nM] | IC50 (JAK2) [nM] | IC50 (JAK3) [nM] | IC50 (JAK1; [1]) [nM] | Compound
10 to 100 | 100 to 1000 | 10 to 100 | 1000 to 10000 | – | CCC(CC)n1cc(-c2nc(-c3cnn(C4CN(C(=O)[C@H](C)O)C4)c3)cn3nccc23)cn1 [Example 173, (S)-2-hydroxy-1-(3-(4-(4-(1-(pentan-3-yl)-1H-pyrazol-4-yl)pyrazolo[1,5-a]pyrazin-6-yl)-1H-pyrazol-1-yl)azetidin-1-yl)propan-1-one]
10 to 100 | – | 10 to 100 | 1000 to 10000 | 100 to 1000 | CC[C@H](C1CC1)n1cc(-c2nc(-c3cnn(C(CO)CO)c3)cn3nccc23)cn1 [Example 215, (R)-2-(4-(4-(1-(1-cyclopropylpropyl)-1H-pyrazol-4-yl)pyrazolo[1,5-a]pyrazin-6-yl)-1H-pyrazol-1-yl)propane-1,3-diol]
100 to 1000 | 1000 to 10000 | 100 to 1000 | 1000 to 10000 | – | CC(C)C[C@@H](C)n1cc(-c2nc(-c3cnn(C(CO)CO)c3)cn3nccc23)cn1 [Example 88, (R)-2-(4-(4-(1-(4-methylpentan-2-yl)-1H-pyrazol-4-yl)pyrazolo[1,5-a]pyrazin-6-yl)-1H-pyrazol-1-yl)propane-1,3-diol]
10 to 100 | – | 10 to 100 | 1000 to 10000 | 100 to 1000 | CCC(CC)n1cc(-c2nc(-c3cnn(C[C@H](CO)N(C)C)c3)cn3nccc23)cn1 [Example 131, (R)-2-(dimethylamino)-3-(4-(4-(1-(pentan-3-yl)-1H-pyrazol-4-yl)pyrazolo[1,5-a]pyrazin-6-yl)-1H-pyrazol-1-yl)propan-1-ol]
10 to 100 | 100 to 1000 | 10 to 100 | 1000 to 10000 | – | CCC(CC)n1cc(-c2nc(-c3cnn(C[C@H](C)O)c3)cn3nccc23)cn1 [Example 110, (S)-1-(4-(4-(1-(pentan-3-yl)-1H-pyrazol-4-yl)pyrazolo[1,5-a]pyrazin-6-yl)-1H-pyrazol-1-yl)propan-2-ol]
10 to 100 | – | 10 to 100 | 1000 to 10000 | 100 to 1000 | CCC(CC)n1cc(-c2nc(-c3cnn(CCN(C)S(C)(=O)=O)c3)cn3nccc23)cn1 [Example 9, N-methyl-N-(2-(4-(4-(1-(pentan-3-yl)-1H-pyrazol-4-yl)pyrazolo[1,5-a]pyrazin-6-yl)-1H-pyrazol-1-yl)ethyl)methanesulfonamide]
10 to 100 | 1000 to 10000 | 10 to 100 | 1000 to 10000 | – | CCC(CC)n1cc(-c2nc(-c3cnn(CCN4CC[C@@H](O)C4)c3)cn3nccc23)cn1 [Example 140, (R)-1-(2-(4-(4-(1-(pentan-3-yl)-1H-pyrazol-4-yl)pyrazolo[1,5-a]pyrazin-6-yl)-1H-pyrazol-1-yl)ethyl)pyrrolidin-3-ol]
100 to 1000 | – | 100 to 1000 | 1000 to 10000 | 1000 to 10000 | CCC(CC)n1cc(-c2nc(-c3cnn(C[C@@H](O)CN4CCCC4)c3)cn3nccc23)cn1 [Example 106, (S)-1-(4-(4-(1-(pentan-3-yl)-1H-pyrazol-4-yl)pyrazolo[1,5-a]pyrazin-6-yl)-1H-pyrazol-1-yl)-3-(pyrrolidin-1-yl)propan-2-ol]
10 to 100 | 100 to 1000 | 10 to 100 | 1000 to 10000 | – | CCC(CC)n1cc(-c2nc(-c3cnn(C[C@@H](O)C(C)(C)O)c3)cn3nccc23)cn1 [Example 57, (R)-3-methyl-1-(4-(4-(1-(pentan-3-yl)-1H-pyrazol-4-yl)pyrazolo[1,5-a]pyrazin-6-yl)-1H-pyrazol-1-yl)butane-2,3-diol]
10 to 100 | – | 10 to 100 | 1000 to 10000 | 100 to 1000 | CCC(CC)n1cc(-c2nc(-c3cnn(C[C@@H](O)CO)c3)cn3nccc23)cn1 [Example 54, (R)-3-(4-(4-(1-(pentan-3-yl)-1H-pyrazol-4-yl)pyrazolo[1,5-a]pyrazin-6-yl)-1H-pyrazol-1-yl)propane-1,2-diol]
10 to 100 | – | 10 to 100 | 1000 to 10000 | 100 to 1000 | CCC(CC)n1cc(-c2nc(-c3cnn(C[C@@H](CO)N(C)C)c3)cn3nccc23)cn1 [Example 129, (S)-2-(dimethylamino)-3-(4-(4-(1-(pentan-3-yl)-1H-pyrazol-4-yl)pyrazolo[1,5-a]pyrazin-6-yl)-1H-pyrazol-1-yl)propan-1-ol]
10 to 100 | – | 10 to 100 | 1000 to 10000 | 100 to 1000 | CCC(CC)n1cc(-c2nc(-c3cnn(C4CN(C(=O)CN5CCCC5)C4)c3)cn3nccc23)cn1 [Example 181, 1-(3-(4-(4-(1-(pentan-3-yl)-1H-pyrazol-4-yl)pyrazolo[1,5-a]pyrazin-6-yl)-1H-pyrazol-1-yl)azetidin-1-yl)-2-(pyrrolidin-1-yl)ethanone]
10 to 100 | – | 10 to 100 | 1000 to 10000 | 100 to 1000 | C[C@@H]1CCCC[C@H]1n1cc(-c2nc(-c3cnn(C[C@@H](O)CO)c3)cn3nccc23)cn1 (single isomer, unassigned) [Example 151]
